Each block holds one compound with its values, some of them ahead of it.
Key:
[1] = system: HepG2; assay: Cytotoxicity against human HepG2 cells after 3 days by MTS assay; type: functional, cell-based; conditions: HepG2, 72 h
[2] = system: HT-29; assay: Cytotoxicity against human HT-29 cells after 3 days by MTS assay; type: functional, cell-based; conditions: HT-29, 72 h
[3] = system: MCF7; assay: Cytotoxicity against human MCF7 cells after 3 days by MTS assay; type: functional, cell-based; conditions: MCF7, 72 h
[4] = system: Nucleic Acid; assay: Binding affinity to Sheared herring sperm DNA assessed as remaining displaced EtBr by fluorescent intercalator displacement assay; type: nucleic-acid assay; set-up: concentration or dose not given beside the values
[5] = system: MCF7; assay: Cytotoxicity against human MCF7 cells assessed as cell viability at 25 uM after 3 days by MTS assay; type: functional; conditions: MCF7, 72 h, read-out: Activity
[6] = system: HT-29; assay: Cytotoxicity against human HT-29 cells assessed as cell viability at 25 uM after 3 days by MTS assay; type: functional; conditions: HT-29, 72 h, read-out: Activity
[7] = system: HepG2; assay: Cytotoxicity against human HepG2 cells assessed as cell viability at 25 uM after 3 days by MTS assay; type: functional; conditions: HepG2, 72 h, read-out: Activity
[8] = system: MCF7; assay: Cytotoxicity against human MCF7 cells at 25 µM after 3 days by MTS assay; conditions: MCF7, 72 h

Structure (SMILES): C[C@@H]1O[C@@H](OCC#Cc2c(-c3ccccc3)sc3ccccc23)CC[C@@H]1N(C)CC#N
- IC50 [1]: 12.3 µM
- IC50 [2]: 6.2 µM
- IC50 [3]: 7.7 µM

Structure (SMILES): CCCCN(CCCC)[C@H]1CC[C@H](OCC#Cc2c(-c3ccccc3)sc3ccccc23)O[C@H]1C
- IC50 [1]: > 25 µM
- IC50 [2]: > 25 µM
- IC50 [3]: > 25 µM

- Activity [4]: 52.9%
Structure (SMILES): C[C@H](N)C(=O)N[C@H]1CC[C@H](OCC#Cc2c(-c3ccccc3)oc3ccccc23)O[C@H]1C
- IC50 [1]: 4.1 µM
- IC50 [2]: 6.8 µM
- IC50 [3]: 8 µM

Structure (SMILES): CCN[C@H]1CC[C@H](OCC#Cc2c(-c3ccccc3)sc3ccccc23)O[C@H]1C
- IC50 [1]: 6.6 µM
- IC50 [2]: 3.4 µM
- IC50 [3]: 5.9 µM

Structure (SMILES): COc1ccc(CN[C@H]2CC[C@H](OCC#Cc3c(-c4ccccc4)sc4ccccc34)O[C@H]2C)cc1
- IC50 [1]: > 25 µM
- IC50 [2]: 6.2 µM
- IC50 [3]: > 25 µM

Structure (SMILES): COc1cc(CN[C@H]2CC[C@H](OCC#Cc3c(-c4ccccc4)oc4ccccc34)O[C@H]2C)cc(OC)c1OC
- IC50 [1]: 11.3 µM
- IC50 [2]: 8 µM
- viability at 25 µM [5]: 30%
- viability at 25 µM [6]: 6%
- viability at 25 µM [7]: 7%
- cell viability at 25 µM [8]: 30%

Structure (SMILES): CC(C)CCN(CCC(C)C)[C@H]1CC[C@H](OCC#Cc2c(-c3ccccc3)oc3ccccc23)O[C@H]1C
- IC50 [1]: > 25 µM
- IC50 [2]: > 25 µM
- IC50 [3]: > 25 µM

Structure (SMILES): CN[C@H]1CC[C@H](OCC#Cc2c(-c3ccccc3)sc3ccccc23)O[C@H]1C
- IC50 [1]: 8.8 µM
- IC50 [2]: 5.4 µM
- IC50 [3]: 7.1 µM

- Activity [4]: 26%
Structure (SMILES): CCN[C@H]1CC[C@H](OCC#Cc2c(-c3ccccc3)oc3ccccc23)O[C@H]1C
- IC50 [1]: 6 µM
- IC50 [2]: 5.8 µM
- IC50 [3]: 9.2 µM

Structure (SMILES): C[C@@H]1O[C@@H](OCC#Cc2c(-c3ccccc3)oc3ccccc23)CC[C@@H]1NCc1ccc(O)cc1
- IC50 [1]: 13.4 µM
- IC50 [2]: 5.8 µM
- IC50 [3]: 10.9 µM
- viability at 25 µM [5]: 2%
- viability at 25 µM [6]: < 1%
- viability at 25 µM [7]: < 1%

Structure (SMILES): C[C@@H]1O[C@@H](OCC#Cc2c(-c3ccccc3)oc3ccccc23)CC[C@@H]1NCC1CCCCC1
- IC50 [1]: > 25 µM
- IC50 [2]: 10.2 µM
- IC50 [3]: > 25 µM

Structure (SMILES): CCCCN(CCCC)[C@H]1CC[C@H](OCC#Cc2c(-c3ccccc3)oc3ccccc23)O[C@H]1C
- IC50 [1]: > 25 µM
- IC50 [2]: > 25 µM
- IC50 [3]: > 25 µM

Structure (SMILES): COc1ccc(CN[C@H]2CC[C@H](OCC#Cc3c(-c4ccccc4)oc4ccccc34)O[C@H]2C)cc1
- IC50 [1]: 13.1 µM
- IC50 [2]: 7.9 µM
- viability at 25 µM [5]: 31%
- viability at 25 µM [6]: 8%
- viability at 25 µM [7]: 12%
- cell viability at 25 µM [8]: 31%

Structure (SMILES): C[C@@H]1O[C@@H](OCC#Cc2c(-c3ccccc3)oc3ccccc23)CC[C@@H]1NCc1ccc[nH]1
- IC50 [1]: 20.8 µM
- IC50 [2]: 11.1 µM
- IC50 [3]: 18.1 µM
- viability at 25 µM [5]: 14%
- viability at 25 µM [6]: < 1%
- viability at 25 µM [7]: < 1%

Structure (SMILES): C[C@@H]1O[C@@H](OCC#Cc2c(-c3ccccc3)oc3ccccc23)CC[C@@H]1NCc1ccccn1
- IC50 [1]: 16.3 µM
- IC50 [2]: 10.8 µM
- IC50 [3]: 14.3 µM
- viability at 25 µM [5]: 11%
- viability at 25 µM [6]: < 1%
- viability at 25 µM [7]: < 1%

Structure (SMILES): CCCCCCN[C@H]1CC[C@H](OCC#Cc2c(-c3ccccc3)oc3ccccc23)O[C@H]1C
- IC50 [1]: 14.4 µM
- IC50 [2]: 6 µM
- IC50 [3]: 14.8 µM

Structure (SMILES): CCN(CC)[C@H]1CC[C@H](OCC#Cc2c(-c3ccccc3)sc3ccccc23)O[C@H]1C
- IC50 [1]: 11.7 µM
- IC50 [2]: 3.9 µM
- IC50 [3]: 12 µM

Structure (SMILES): C[C@@H]1O[C@@H](OCC#Cc2c(-c3ccccc3)sc3ccccc23)CC[C@@H]1N(C)C
- IC50 [1]: 10 µM
- IC50 [2]: 3.3 µM
- IC50 [3]: 8.2 µM

Structure (SMILES): C[C@@H]1O[C@@H](OCC#Cc2c(-c3ccccc3)sc3ccccc23)CC[C@@H]1NCc1ccc(O)cc1
- IC50 [1]: 20.3 µM
- IC50 [2]: 5.1 µM
- IC50 [3]: 12 µM

Structure (SMILES): C[C@@H]1O[C@@H](OCC#Cc2c(-c3ccccc3)oc3ccccc23)CC[C@@H]1NCc1ccc([N+](=O)[O-])cc1
- IC50 [1]: > 25 µM
- IC50 [2]: > 25 µM
- IC50 [3]: > 25 µM
- viability at 25 µM [5]: 86%
- viability at 25 µM [6]: 59%
- viability at 25 µM [7]: 94%

- Activity [4]: 68.5%
Structure (SMILES): C[C@@H]1O[C@@H](OCC#Cc2c(-c3ccccc3)oc3ccccc23)CC[C@@H]1N
- viability at 25 µM [5]: < 1%
- viability at 25 µM [6]: < 1%
- viability at 25 µM [7]: < 1%

Structure (SMILES): C[C@@H]1O[C@@H](OCC#Cc2c(-c3ccccc3)oc3ccccc23)CC[C@@H]1N(C)C
- IC50 [1]: 6.8 µM
- IC50 [2]: 6.1 µM
- IC50 [3]: 10.3 µM

Structure (SMILES): C[C@@H]1O[C@@H](OCC#Cc2c(-c3ccccc3)oc3ccccc23)CC[C@@H]1NCc1ccco1
- IC50 [1]: > 25 µM
- IC50 [2]: 15.2 µM
- IC50 [3]: > 25 µM
- viability at 25 µM [5]: 77%
- viability at 25 µM [6]: 24%
- viability at 25 µM [7]: 70%

Structure (SMILES): CCCCN[C@H]1CC[C@H](OCC#Cc2c(-c3ccccc3)sc3ccccc23)O[C@H]1C
- IC50 [1]: 18.6 µM
- IC50 [2]: 7 µM
- IC50 [3]: 10.2 µM

Structure (SMILES): CCCCN[C@H]1CC[C@H](OCC#Cc2c(-c3ccccc3)oc3ccccc23)O[C@H]1C
- IC50 [1]: 19 µM
- IC50 [2]: 9.8 µM
- IC50 [3]: 20.8 µM

Structure (SMILES): CCCCCCN[C@H]1CC[C@H](OCC#Cc2c(-c3ccccc3)sc3ccccc23)O[C@H]1C
- IC50 [1]: 19.1 µM
- IC50 [2]: 5.1 µM
- IC50 [3]: 6.8 µM

Structure (SMILES): CC(C)CCN[C@H]1CC[C@H](OCC#Cc2c(-c3ccccc3)oc3ccccc23)O[C@H]1C
- IC50 [1]: 13.6 µM
- IC50 [2]: 6.6 µM
- IC50 [3]: 11.3 µM

Structure (SMILES): C[C@@H]1O[C@@H](OCC#Cc2c(-c3ccccc3)sc3ccccc23)CC[C@@H]1NCc1ccccc1
- IC50 [1]: > 25 µM
- IC50 [2]: 19 µM
- IC50 [3]: > 25 µM

Structure (SMILES): C[C@@H]1O[C@@H](OCC#Cc2c(-c3ccccc3)sc3ccccc23)CC[C@@H]1NCC#N
- IC50 [1]: 18 µM
- IC50 [2]: 10.8 µM
- IC50 [3]: 10.5 µM

Structure (SMILES): Cc1ccc(CN[C@H]2CC[C@H](OCC#Cc3c(-c4ccccc4)oc4ccccc34)O[C@H]2C)cc1
- IC50 [1]: > 25 µM
- IC50 [2]: 11.9 µM
- IC50 [3]: > 25 µM
- viability at 25 µM [5]: 51%
- viability at 25 µM [6]: 29%
- viability at 25 µM [7]: 65%

Structure (SMILES): C[C@@H]1O[C@@H](OCC#Cc2c(-c3ccccc3)oc3ccccc23)CC[C@@H]1NCc1ccccc1
- IC50 [1]: > 25 µM
- IC50 [2]: 17.9 µM
- IC50 [3]: > 25 µM
- viability at 25 µM [5]: 72%
- viability at 25 µM [6]: 31%
- viability at 25 µM [7]: 87%

Structure (SMILES): CCN(CC)[C@H]1CC[C@H](OCC#Cc2c(-c3ccccc3)oc3ccccc23)O[C@H]1C
- IC50 [1]: 10.7 µM
- IC50 [2]: 6.8 µM
- IC50 [3]: 9.7 µM

- Activity [4]: 79%
Structure (SMILES): CC(C)N[C@H]1CC[C@H](OCC#Cc2c(-c3ccccc3)oc3ccccc23)O[C@H]1C
- IC50 [1]: 13 µM
- IC50 [2]: 5.8 µM
- IC50 [3]: 12.6 µM

- Activity [4]: 98.6%
Structure (SMILES): CC(=O)N[C@H]1CC[C@H](OCC#Cc2c(-c3ccccc3)oc3ccccc23)O[C@H]1C
- IC50 [1]: 18.2 µM
- IC50 [2]: 13.3 µM
- IC50 [3]: 23.4 µM

— ChEMBL document CHEMBL1770050, “Effect of carbohydrate amino group modifications on the cytotoxicity of glycosylated 2-phenyl-benzo[b]thiophenes and 2-phenyl-benzo[b]furans” (Bioorg Med Chem Lett, 2011)
